Experimental data reported in patent publication US8071838B2, “Targeted and regional cellular ablation in zebrafish” (Washington University in St. Louis, priority 2003, dated 2011).

Columns and labels:
[1] = molecular target: nitroreductase (Escherichia coli, UniProt P38489); conditions: substrate for nitroreductase; due to permeability of the cytotoxic metabolite (Bridgewater et al., 1997; Wilson et al., 2002); cited from earlier work
[2] = system: unc-CFP-Nitro expressing cells; test: nitroreductase-based pro-drug conversion and cellular ablation in transient transgenic zebrafish embryos; assay type: in vivo; conditions: metronidazole 10 mM, 5 mM, 2.5 mM in embryo medium; treated from 62 hpf, imaged at 118 hpf; untreated embryos keep both reporters
Protocol: In order to determine the efficacy of nitroreductase-based pro-drug conversion and subsequent cellular ablation in transient transgenic zebrafish the following experiment was performed: Male and female zebrafish from a ‘transparent’ strain (e.g., harboring the roy mutation) were allowed to mate over egg collection chambers at light onset. Fertilized eggs were collected every 15 minutes and placed in petri dishes containing embryo medium (0.3X Danieau's solution containing 100 units/ml penicillin and 100 μg/ml streptomycin). Eggs were dispensed into a silicone chambers and oriented such that the cell side was facing up. For injections, DNA plasmids were diluted into 1X Danieau's solution to a final concentration of 10 ng/μl. DNA plasmids used for this experiment included: 1) An alpha-1-tubulin promoter driving expression of a Gal4/VP 16 “driver” protein (α-1-tub::Gal4/VP16); 2) A UAS regulated red control fluorescent reporter protein (UAS::DsRed) and; 3) A UAS regulated cyan fluorescent reporter protein (unc-CFP) fused to nitroreductase (UAS::unc-CFP-Nitro, see FIG. 2 and FIG. 3). […] At 28 hpf, injected embryos were screened for equivalent expression of the DsRed reporter (control cells) and the unc-CFP-Nitro ablation/reporter (targeted cells) using standard fluorescence microscopy. […]

[3] = system: zebrafish; conditions: in vivo; cited from earlier work

Chain of nitroreductase (P38489 whole entry): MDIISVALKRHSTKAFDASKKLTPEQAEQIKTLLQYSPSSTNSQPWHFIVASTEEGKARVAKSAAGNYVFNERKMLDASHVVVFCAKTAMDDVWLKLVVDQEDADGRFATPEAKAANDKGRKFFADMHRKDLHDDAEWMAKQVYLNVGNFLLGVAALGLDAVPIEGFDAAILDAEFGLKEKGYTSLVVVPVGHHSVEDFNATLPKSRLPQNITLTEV

SMILES	bystander effect [1]	ablation of reporter-expressing cells (confocal imaging of unc-CFP-Nitro vs DsRed control reporter) [2]	general toxicity [3]
NC(=O)c1cc(N2CC2)c([N+](=O)[O-])cc1[N+](=O)[O-] [CE 1954, 5-(aziridin-1-yl)-2,4-dinitrobenzamide]	specifically promote the bystander effect	–	–
Cc1ncc([N+](=O)[O-])n1CCO [metronidazole]	–	selective elimination of unc-CFP-Nitro expressing cells	no general toxicity
